Reference: US20160355530A1, “HEPATITIS C INHIBITORS AND USES THEREOF” (AbbVie Inc., priority 2010, published 2016)
Like-named read-outs stand apart in the source and are kept apart here.

Columns and labels:
[1] = tested on: HCV 1a-H77 subgenomic replicon; experiment: microbe, parasite or virus in culture; format: cell-based, HCV genotype 1a; settings: Hepatitis C virus, stable replicon
[2] = tested on: chimeric replicon with genotype 3a NS5B; experiment: microbe, parasite or virus in culture; format: cell-based, HCV genotype 3a; settings: Hepatitis C virus, read-out: 3a chimera 5% FBS EC50
[3] = tested on: chimeric replicon with 2a-J6CF-derived NS5B; experiment: microbe, parasite or virus in culture; format: cell-based, HCV genotype 2a; settings: Hepatitis C virus, read-out: 2a chimera 5% FBS EC50
[4] = tested on: chimeric replicon with genotype 4a NS5B; experiment: microbe, parasite or virus in culture; format: cell-based, HCV genotype 4a; settings: Hepatitis C virus, read-out: 4a chimera 5% FBS EC50
[5] = tested on: HCV 1b-BB7 subgenomic replicon; experiment: microbe, parasite or virus in culture; format: cell-based, HCV genotype 1b; settings: Hepatitis C virus, stable replicon
[6] = target: T1, HCV NS5B polymerase 1a-H77-C316Y (Hepatitis C virus genotype 1a, UniProt P27958, C2736Y); experiment: biochemical; set-up: species or system HCV genotype 1a
T1 construct: six-histidine tag; made in house; host or cells: E. coli
T1 sequence (P27958 2421-2990 C2736Y): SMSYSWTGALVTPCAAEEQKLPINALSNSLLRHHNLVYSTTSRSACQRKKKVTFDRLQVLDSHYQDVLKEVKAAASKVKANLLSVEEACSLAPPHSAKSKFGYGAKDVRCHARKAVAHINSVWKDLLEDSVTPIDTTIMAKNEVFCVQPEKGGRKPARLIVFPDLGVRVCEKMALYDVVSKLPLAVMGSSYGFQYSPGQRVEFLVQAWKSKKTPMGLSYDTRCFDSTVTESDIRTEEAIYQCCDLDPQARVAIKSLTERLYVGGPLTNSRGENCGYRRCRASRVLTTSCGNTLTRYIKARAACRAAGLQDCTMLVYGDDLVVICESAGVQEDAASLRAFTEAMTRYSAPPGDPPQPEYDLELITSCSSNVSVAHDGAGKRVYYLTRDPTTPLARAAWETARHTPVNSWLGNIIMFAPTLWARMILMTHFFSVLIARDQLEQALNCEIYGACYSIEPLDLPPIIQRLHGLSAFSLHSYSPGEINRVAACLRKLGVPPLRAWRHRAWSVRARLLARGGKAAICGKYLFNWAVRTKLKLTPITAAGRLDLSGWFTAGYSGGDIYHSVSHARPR
Outline: (§1)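 E. coli-expressed NS5B (residues 1-570, His-tagged) transcribed a 2.1 kb HCV 1b negative-strand 3′-end RNA template (5 nM) with 20 μM CTP, 20 μM ATP and 0.284 μM [3H]UTP for 3 h at 30° C. Spermine-precipitated RNA was filter-captured and counted by scintillation; IC50 from nonlinear regression.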

[7] = target: T2, HCV NS5B polymerase 1a-H77 (Hepatitis C virus genotype 1a, UniProt P27958); experiment: biochemical; set-up: species or system HCV genotype 1a; settings: enzyme, strain 1a H77; read-out: HCV Polymerase Strain 1a H77 IC50
T2 construct: six-histidine tag; made in house; host or cells: E. coli
T2 sequence (P27958 2421-2990): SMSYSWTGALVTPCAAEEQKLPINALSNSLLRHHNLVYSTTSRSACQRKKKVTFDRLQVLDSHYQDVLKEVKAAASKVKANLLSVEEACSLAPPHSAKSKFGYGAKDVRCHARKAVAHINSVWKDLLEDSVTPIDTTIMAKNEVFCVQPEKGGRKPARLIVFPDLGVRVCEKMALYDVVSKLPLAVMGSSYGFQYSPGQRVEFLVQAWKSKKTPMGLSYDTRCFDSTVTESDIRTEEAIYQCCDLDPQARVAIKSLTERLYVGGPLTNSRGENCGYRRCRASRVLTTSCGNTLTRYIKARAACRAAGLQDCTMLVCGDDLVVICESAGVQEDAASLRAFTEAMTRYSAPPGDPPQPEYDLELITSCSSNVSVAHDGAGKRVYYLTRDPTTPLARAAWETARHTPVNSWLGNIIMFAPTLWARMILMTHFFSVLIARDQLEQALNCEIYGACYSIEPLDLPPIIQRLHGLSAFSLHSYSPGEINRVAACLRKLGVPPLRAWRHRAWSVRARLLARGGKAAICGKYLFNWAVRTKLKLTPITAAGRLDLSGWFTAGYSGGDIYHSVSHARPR
Outline: as §1

[8] = tested on: HCV NS5B polymerase 1a-H77-C316Y; experiment: biochemical; set-up: species or system HCV genotype 1a; settings: ratio of enzyme IC50s, 1a H77-C316Y / 1a H77
Outline: as §1

[9] = target: T3, HCV NS5B polymerase 1b BK strain (Hepatitis C virus genotype 1b, UniProt P26663); experiment: HCV NS5B polymerase enzymatic inhibition assay, strain 1b BK; format: biochemical; settings: enzyme, strain 1b BK; read-out: HCV Polymerase Strain 1b BK IC50
T3 construct: six-histidine tag; made in house; host or cells: E. coli
T3 sequence (P26663 2420-2989): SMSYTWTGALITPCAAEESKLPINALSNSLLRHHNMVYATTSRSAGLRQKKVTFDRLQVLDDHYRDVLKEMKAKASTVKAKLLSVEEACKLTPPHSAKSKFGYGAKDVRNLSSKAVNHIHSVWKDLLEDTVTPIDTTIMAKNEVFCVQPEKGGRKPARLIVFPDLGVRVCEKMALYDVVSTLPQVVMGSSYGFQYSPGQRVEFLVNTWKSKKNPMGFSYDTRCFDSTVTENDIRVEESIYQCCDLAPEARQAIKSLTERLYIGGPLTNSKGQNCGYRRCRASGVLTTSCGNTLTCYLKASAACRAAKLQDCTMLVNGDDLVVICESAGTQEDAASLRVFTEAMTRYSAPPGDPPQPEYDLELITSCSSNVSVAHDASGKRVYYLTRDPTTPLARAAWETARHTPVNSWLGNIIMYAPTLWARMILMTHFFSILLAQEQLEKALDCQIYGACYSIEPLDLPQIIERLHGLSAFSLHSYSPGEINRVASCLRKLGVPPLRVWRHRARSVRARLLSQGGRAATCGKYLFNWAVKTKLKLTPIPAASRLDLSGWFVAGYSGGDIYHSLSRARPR
Outline: as §1

[10] = tested on: chimeric replicon with genotype 2b NS5B; experiment: microbe, parasite or virus in culture; format: cell-based, HCV genotype 2b; settings: Hepatitis C virus, read-out: 2b chimera 5% FBS EC50
[11] = 5% FBS, absence of human plasma, read-out: Stable Replicon 1a H77 5% FBS EC50
[12] = strain 1a H77, 5% FBS + 40% human plasma, read-out: 1a H77 5% FBS + 40% Human Plasma EC50
[13] = strain 1a H77, 5% FBS, no human plasma, read-out: 1a H77 5% FBS EC50
[14] = strain 1a H77, 5% FBS, read-out: 1a H77 5% FBS EC50
[15] = strain 1b BB7, 5% FBS + 40% human plasma, read-out: 1b BB7 5% FBS + 40% Human Plasma EC50
[16] = strain 1b BB7, 5% FBS, no human plasma, read-out: 1b BB7 5% FBS EC50
[17] = strain 1b BB7, 5% FBS, read-out: 1b BB7 5% FBS EC50

SMILES | EC50 [1, 11] | EC50 [1, 12] | EC50 [1, 13] | EC50 [1, 14] | EC50 [2] | EC50 [3] | EC50 [4] | EC50 [5, 15] | EC50 [5, 16] | EC50 [5, 17] | IC50 [6] | IC50 [7] | C316Y/1a Fold Resistance [8] | IC50 [9] | EC50 [10]
CCN(CC)CCN(c1cc2oc(-c3ccc(F)cc3)c(C3=NOCCN3)c2cc1C1CC1)S(C)(=O)=O [Example 129, N-[5-cyclopropyl-3-(5,6-dihydro-4H-1,2,4-oxadiazin-3-yl)-2-(4-fluorophenyl)-1-benzofuran-6-yl]-N-[2-(diethylamino)ethyl]methanesulfonamide] | 80.9 nM | 300 nM | 80.9 nM | 80.9 nM | 149 nM | 625 nM | > 1000 nM | 163 nM | 38 nM | 38 nM | 632 nM | 24 nM | 26 fold | 466 nM | 625 nM
CCN(CC)CCCN(c1cc2oc(-c3ccc(F)cc3)c(C3=NOCCN3)c2cc1C1CC1)S(C)(=O)=O [Example 131, N-[5-cyclopropyl-3-(5,6-dihydro-4H-1,2,4-oxadiazin-3-yl)-2-(4-fluorophenyl)-1-benzofuran-6-yl]-N-[3-(diethylamino)propyl]methanesulfonamide] | 122 nM | 350 nM | 122 nM | 122 nM | 131 nM | 380 nM | 782 nM | 102 nM | 26 nM | 26 nM | 876 nM | 30.2 nM | 29 fold | 171 nM | 446 nM
CS(=O)(=O)N(CCCN1CCCC1)c1cc2oc(-c3ccc(F)cc3)c(C3=NOCCN3)c2cc1C1CC1 [Example 132, N-[5-cyclopropyl-3-(5,6-dihydro-4H-1,2,4-oxadiazin-3-yl)-2-(4-fluorophenyl)-1-benzofuran-6-yl]-N-[3-(pyrrolidin-1-yl)propyl]methanesulfonamide] | 142 nM | 313 nM | 142 nM | 142 nM | 93 nM | 244 nM | > 1000 nM | 122 nM | 40 nM | 40 nM | 934 nM | 22 nM | 42 fold | 246 nM | 428 nM
CS(=O)(=O)N(CCCC#N)c1cc2oc(-c3ccc(F)cc3)c(C3=NOCCN3)c2cc1C1CC1 [Example 133, N-(3-cyanopropyl)-N-[5-cyclopropyl-3-(5,6-dihydro-4H-1,2,4-oxadiazin-3-yl)-2-(4-fluorophenyl)-1-benzofuran-6-yl]methanesulfonamide] | 6.3 nM | 37 nM | 6.3 nM | 6.32 nM | 11 nM | 92 nM | 75 nM | 55 nM | 6 nM | 6 nM | 50 nM | 8 nM | 6 fold | 46 nM | 82 nM
CS(=O)(=O)N(CCCCCO)c1cc2oc(-c3ccc(F)cc3)c(C3=NOCCN3)c2cc1C1CC1 [Example 134, N-[5-cyclopropyl-3-(5,6-dihydro-4H-1,2,4-oxadiazin-3-yl)-2-(4-fluorophenyl)-1-benzofuran-6-yl]-N-(5-hydroxypentyl)methanesulfonamide] | 6.5 nM | 69 nM | 6.5 nM | 6.48 nM | 20 nM | 84 nM | 53 nM | 93 nM | 9 nM | 9 nM | 42 nM | 8 nM | 5 fold | 82 nM | 69 nM
C[S+]([O-])CCN(c1cc2oc(-c3ccc(F)cc3)c(C3=NOCCN3)c2cc1C1CC1)S(C)(=O)=O (stereo not drawn) [Example 138, N-[5-cyclopropyl-3-(5,6-dihydro-4H-1,2,4-oxadiazin-3-yl)-2-(4-fluorophenyl)-1-benzofuran-6-yl]-N-[2-(methylsulfinyl)ethyl]methanesulfonamide] | 46.5 nM | 183 nM | 46.5 nM | 46.5 nM | 102 nM | 1000 nM | 524 nM | 270 nM | 36 nM | 36 nM | 232 nM | 9.8 nM | 24 fold | 49 nM | 1000 nM
C[S+]([O-])CCCN(c1cc2oc(-c3ccc(F)cc3)c(C3=NOCCN3)c2cc1C1CC1)S(C)(=O)=O (stereo not drawn) [Example 139, N-[5-cyclopropyl-3-(5,6-dihydro-4H-1,2,4-oxadiazin-3-yl)-2-(4-fluorophenyl)-1-benzofuran-6-yl]-N-[3-(methylsulfinyl)propyl]methanesulfonamide] | 59.2 nM | 648 nM | 59.2 nM | 59.2 nM | 102 nM | 1000 nM | 572 nM | 948 nM | 68 nM | 68 nM | 89 nM | 7.7 nM | 11 fold | 9 nM | 787 nM
CS(=O)(=O)CCCN(c1cc2oc(-c3ccc(F)cc3)c(C3=NOCCN3)c2cc1C1CC1)S(C)(=O)=O [Example 140, N-[5-cyclopropyl-3-(5,6-dihydro-4H-1,2,4-oxadiazin-3-yl)-2-(4-fluorophenyl)-1-benzofuran-6-yl]-N-[3-(methylsulfonyl)propyl]methanesulfonamide] | 14.5 nM | 122 nM | 14.5 nM | 14.5 nM | 44 nM | 274 nM | 189 nM | 150 nM | 11 nM | 11 nM | 38 nM | 5 nM | 8 fold | 42 nM | 211 nM
CC[S+]([O-])CCN(c1cc2oc(-c3ccc(F)cc3)c(C3=NOCCN3)c2cc1C1CC1)S(C)(=O)=O (stereo not drawn) [Example 141, N-[5-cyclopropyl-3-(5,6-dihydro-4H-1,2,4-oxadiazin-3-yl)-2-(4-fluorophenyl)-1-benzofuran-6-yl]-N-[2-(ethylsulfinyl)ethyl]methanesulfonamide] | 38.5 nM | 275 nM | 38.5 nM | 38.5 nM | 53 nM | 623 nM | 621 nM | 296 nM | 31 nM | 31 nM | 209 nM | 15 nM | 14 fold | 167 nM | 1000 nM
CCS(=O)(=O)CCN(c1cc2oc(-c3ccc(F)cc3)c(C3=NOCCN3)c2cc1C1CC1)S(C)(=O)=O [Example 142, N-[5-cyclopropyl-3-(5,6-dihydro-4H-1,2,4-oxadiazin-3-yl)-2-(4-fluorophenyl)-1-benzofuran-6-yl]-N-[2-(ethylsulfonyl)ethyl]methanesulfonamide] | 11.5 nM | 41 nM | 11.5 nM | 11.5 nM | 21 nM | 193 nM | 161 nM | 110 nM | 11 nM | 11 nM | 59 nM | 7 nM | 8 fold | 42 nM | 368 nM
CCS(=O)(=O)CCCN(c1cc2oc(-c3ccc(F)cc3)c(C3=NOCCN3)c2cc1C1CC1)S(C)(=O)=O [Example 143, N-[5-cyclopropyl-3-(5,6-dihydro-4H-1,2,4-oxadiazin-3-yl)-2-(4-fluorophenyl)-1-benzofuran-6-yl]-N-[3-(ethylsulfonyl)propyl]methanesulfonamide] | 21.8 nM | 125 nM | 21.8 nM | 21.8 nM | 35 nM | 131 nM | 150 nM | 108 nM | 12 nM | 12 nM | 75 nM | 9 nM | 8 fold | 42 nM | 137 nM
